According to patent EP4745137A1 (Gluetacs Therapeutics (Shanghai) Co., Ltd., priority 2023, dated 2025):

Columns and labels:
Type in all cases: cell-based
Conditions in all cases: 24 hours of compound treatment, 50 nM and 500 nM tested (concentration behind the class not stated)
[1] = molecular target: T1, CK1α (Homo sapiens, UniProt P48729+Q96SW2); test: Western-blot assay of substrate protein degradation in hPBMCs, CK1α
T1 construct: endogenous in cells; host or cells: hPBMCs (Milecell Biotechnologies)

[2] = molecular target: T2, IKZF2 (Homo sapiens, UniProt Q96SW2+Q9UKS7); test: Western-blot assay of substrate protein degradation in hPBMCs, IKZF2
T2 construct: endogenous in cells; host or cells: hPBMCs (Milecell Biotechnologies)

[3] = molecular target: T3, WEE1 (Homo sapiens, UniProt P30291+Q96SW2); test: Western-blot assay of substrate protein degradation in hPBMCs, WEE1
T3 construct: endogenous in cells; host or cells: hPBMCs (Milecell Biotechnologies)

[4] = molecular target: T4, IKZF3 (Homo sapiens, UniProt Q96SW2+Q9UKT9); test: Western-blot assay of substrate protein degradation in hPBMCs, IKZF3
T4 construct: endogenous in cells; host or cells: hPBMCs (Milecell Biotechnologies)

[5] = molecular target: T5, GSPT1 (Homo sapiens, UniProt P15170+Q96SW2); test: Western-blot assay of substrate protein degradation in hPBMCs, GSPT1
T5 construct: endogenous in cells; host or cells: hPBMCs (Milecell Biotechnologies)

[6] = molecular target: T6, IKZF1 (Homo sapiens, UniProt Q13422+Q96SW2); test: Western-blot assay of substrate protein degradation in hPBMCs, IKZF1
T6 construct: endogenous in cells; host or cells: hPBMCs (Milecell Biotechnologies)
T6 sequence (Q13422 whole entry): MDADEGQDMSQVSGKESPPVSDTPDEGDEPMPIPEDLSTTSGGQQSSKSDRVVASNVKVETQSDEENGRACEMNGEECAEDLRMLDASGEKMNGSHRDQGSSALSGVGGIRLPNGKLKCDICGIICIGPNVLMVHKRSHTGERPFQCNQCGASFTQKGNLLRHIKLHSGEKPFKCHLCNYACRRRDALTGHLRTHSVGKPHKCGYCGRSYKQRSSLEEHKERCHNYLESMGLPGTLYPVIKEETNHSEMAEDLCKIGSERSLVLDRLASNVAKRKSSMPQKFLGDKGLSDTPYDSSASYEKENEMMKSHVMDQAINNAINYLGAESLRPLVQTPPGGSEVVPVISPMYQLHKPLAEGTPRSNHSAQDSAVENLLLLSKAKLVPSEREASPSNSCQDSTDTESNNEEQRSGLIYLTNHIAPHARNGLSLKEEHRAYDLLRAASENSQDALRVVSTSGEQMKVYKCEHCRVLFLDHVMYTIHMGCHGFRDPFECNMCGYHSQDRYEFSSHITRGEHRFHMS
T6 sequence (Q96SW2 whole entry): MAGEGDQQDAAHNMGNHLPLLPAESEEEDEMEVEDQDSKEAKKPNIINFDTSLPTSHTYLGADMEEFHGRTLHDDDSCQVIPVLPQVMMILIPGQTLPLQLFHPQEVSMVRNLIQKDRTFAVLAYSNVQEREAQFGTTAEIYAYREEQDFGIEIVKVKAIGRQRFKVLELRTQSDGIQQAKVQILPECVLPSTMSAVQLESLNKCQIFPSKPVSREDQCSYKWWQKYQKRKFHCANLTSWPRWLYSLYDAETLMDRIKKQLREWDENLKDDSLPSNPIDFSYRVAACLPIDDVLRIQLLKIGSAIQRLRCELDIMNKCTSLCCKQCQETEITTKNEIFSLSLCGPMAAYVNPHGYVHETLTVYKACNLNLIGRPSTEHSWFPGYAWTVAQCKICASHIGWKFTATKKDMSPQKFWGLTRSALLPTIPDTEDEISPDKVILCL
T6 sequence (Q16531 whole entry partner): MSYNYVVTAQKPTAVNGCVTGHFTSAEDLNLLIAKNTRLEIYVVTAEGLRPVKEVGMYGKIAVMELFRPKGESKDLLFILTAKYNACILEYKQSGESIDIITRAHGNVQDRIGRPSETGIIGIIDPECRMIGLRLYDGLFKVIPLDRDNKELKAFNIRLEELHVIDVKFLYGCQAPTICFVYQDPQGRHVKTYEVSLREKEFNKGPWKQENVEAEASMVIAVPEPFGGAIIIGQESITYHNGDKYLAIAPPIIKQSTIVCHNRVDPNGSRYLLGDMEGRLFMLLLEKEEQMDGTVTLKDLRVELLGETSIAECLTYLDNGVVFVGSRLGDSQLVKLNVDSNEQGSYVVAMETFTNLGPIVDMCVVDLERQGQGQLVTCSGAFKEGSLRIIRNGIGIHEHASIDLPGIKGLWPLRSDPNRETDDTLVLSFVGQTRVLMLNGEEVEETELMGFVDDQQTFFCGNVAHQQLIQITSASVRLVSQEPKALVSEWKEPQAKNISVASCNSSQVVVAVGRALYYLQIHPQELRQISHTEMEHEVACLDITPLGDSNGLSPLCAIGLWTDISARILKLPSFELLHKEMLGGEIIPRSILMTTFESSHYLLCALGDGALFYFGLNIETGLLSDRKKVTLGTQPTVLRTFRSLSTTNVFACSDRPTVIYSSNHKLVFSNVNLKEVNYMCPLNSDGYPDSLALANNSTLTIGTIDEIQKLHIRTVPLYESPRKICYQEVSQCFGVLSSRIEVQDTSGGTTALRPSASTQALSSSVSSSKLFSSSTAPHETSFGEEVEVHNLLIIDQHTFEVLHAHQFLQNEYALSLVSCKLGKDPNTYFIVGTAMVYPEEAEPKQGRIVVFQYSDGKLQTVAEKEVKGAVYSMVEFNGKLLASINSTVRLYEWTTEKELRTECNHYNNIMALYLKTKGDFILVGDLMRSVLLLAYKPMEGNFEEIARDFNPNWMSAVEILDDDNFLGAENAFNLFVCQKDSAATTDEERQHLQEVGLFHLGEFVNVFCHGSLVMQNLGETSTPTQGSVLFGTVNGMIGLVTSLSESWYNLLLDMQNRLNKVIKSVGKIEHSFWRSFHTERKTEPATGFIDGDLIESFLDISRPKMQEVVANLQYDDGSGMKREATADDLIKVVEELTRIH

T2 sequence (Q9UKS7 whole entry): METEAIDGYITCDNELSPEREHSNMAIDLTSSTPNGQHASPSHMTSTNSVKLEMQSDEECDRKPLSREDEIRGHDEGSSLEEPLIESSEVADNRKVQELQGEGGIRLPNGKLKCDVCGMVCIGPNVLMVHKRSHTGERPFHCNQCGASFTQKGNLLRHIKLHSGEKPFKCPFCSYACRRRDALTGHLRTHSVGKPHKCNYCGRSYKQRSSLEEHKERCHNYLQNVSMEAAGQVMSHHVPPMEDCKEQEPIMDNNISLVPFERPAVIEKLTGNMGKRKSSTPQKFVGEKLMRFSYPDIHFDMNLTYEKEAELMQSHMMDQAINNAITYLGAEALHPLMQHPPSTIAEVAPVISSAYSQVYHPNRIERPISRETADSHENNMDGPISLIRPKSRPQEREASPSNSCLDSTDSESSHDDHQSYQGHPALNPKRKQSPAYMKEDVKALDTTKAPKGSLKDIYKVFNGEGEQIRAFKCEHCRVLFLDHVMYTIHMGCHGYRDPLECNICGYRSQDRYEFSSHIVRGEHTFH
T2 sequence (Q96SW2 whole entry): as the sequence (Q96SW2 whole entry) above
T2 sequence (Q16531 whole entry partner): as the sequence (Q16531 whole entry partner) above
T1 sequence (P48729 whole entry): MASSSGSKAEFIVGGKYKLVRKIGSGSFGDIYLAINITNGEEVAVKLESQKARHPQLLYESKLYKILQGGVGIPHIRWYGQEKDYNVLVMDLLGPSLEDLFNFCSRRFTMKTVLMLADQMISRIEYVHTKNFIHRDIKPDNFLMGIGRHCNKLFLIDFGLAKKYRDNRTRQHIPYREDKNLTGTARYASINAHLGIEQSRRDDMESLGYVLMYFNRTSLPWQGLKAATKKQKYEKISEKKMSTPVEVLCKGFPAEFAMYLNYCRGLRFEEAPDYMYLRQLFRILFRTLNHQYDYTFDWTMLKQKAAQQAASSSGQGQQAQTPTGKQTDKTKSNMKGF
T1 sequence (Q96SW2 whole entry): as the sequence (Q96SW2 whole entry) above
T1 sequence (Q16531 whole entry partner): as the sequence (Q16531 whole entry partner) above
T4 sequence (Q9UKT9 whole entry): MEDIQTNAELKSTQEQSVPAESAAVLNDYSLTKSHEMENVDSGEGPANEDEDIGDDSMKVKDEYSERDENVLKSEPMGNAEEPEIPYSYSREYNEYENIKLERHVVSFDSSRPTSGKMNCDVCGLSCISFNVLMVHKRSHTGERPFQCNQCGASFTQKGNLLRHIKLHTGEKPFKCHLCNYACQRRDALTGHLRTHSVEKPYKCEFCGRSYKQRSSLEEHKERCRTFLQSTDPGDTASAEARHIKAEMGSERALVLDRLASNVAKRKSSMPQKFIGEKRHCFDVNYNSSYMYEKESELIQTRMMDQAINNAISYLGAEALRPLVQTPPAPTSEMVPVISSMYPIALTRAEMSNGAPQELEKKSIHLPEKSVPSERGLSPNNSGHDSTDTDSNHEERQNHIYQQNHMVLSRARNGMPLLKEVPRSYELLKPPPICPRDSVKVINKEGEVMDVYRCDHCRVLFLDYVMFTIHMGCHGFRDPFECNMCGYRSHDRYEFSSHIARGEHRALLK
T4 sequence (Q96SW2 whole entry): as the sequence (Q96SW2 whole entry) above
T4 sequence (Q16531 whole entry partner): as the sequence (Q16531 whole entry partner) above
T5 sequence (P15170 whole entry): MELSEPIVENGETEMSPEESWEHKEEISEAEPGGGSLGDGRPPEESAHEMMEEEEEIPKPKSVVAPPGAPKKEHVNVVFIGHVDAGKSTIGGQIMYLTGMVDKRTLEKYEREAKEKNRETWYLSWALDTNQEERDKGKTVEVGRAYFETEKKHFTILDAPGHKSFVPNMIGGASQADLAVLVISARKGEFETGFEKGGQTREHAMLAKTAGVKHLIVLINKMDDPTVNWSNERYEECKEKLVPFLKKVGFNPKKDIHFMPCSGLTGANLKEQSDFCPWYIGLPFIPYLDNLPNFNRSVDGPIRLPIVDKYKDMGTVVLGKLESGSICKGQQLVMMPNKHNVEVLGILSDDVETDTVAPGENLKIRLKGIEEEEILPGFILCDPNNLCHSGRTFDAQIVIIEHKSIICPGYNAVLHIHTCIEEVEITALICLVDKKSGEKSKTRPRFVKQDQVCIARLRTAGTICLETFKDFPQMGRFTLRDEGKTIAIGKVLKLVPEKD
T5 sequence (Q96SW2 whole entry): as the sequence (Q96SW2 whole entry) above
T5 sequence (Q16531 whole entry partner): as the sequence (Q16531 whole entry partner) above

| Structure (SMILES) | CK1a substrate protein remaining % [1] | IKZF2 substrate protein remaining % [2] | Weel substrate protein remaining % [3] | IKZF3 substrate protein remaining % [4] | GSPT1 substrate protein remaining % [5] | IKZF 1 substrate protein remaining % [6] |
| --- | --- | --- | --- | --- | --- | --- |
| O=C1CCC(N2C(=O)c3ccc(CN4CCN(c5ccc(Cl)cc5)CC4)cc3C2=O)C(=O)N1 (stereo not drawn) [GT-06275, 5-((4-(4-chlorophenyl)piperazin-1-yl)methyl)-2-(2,6-dioxopiperidin-3-yl)isoindoline-1,3-dione] | B (80%< substrate protein remaining %≤ 100%) | B (80%< substrate protein remaining %≤ 100%) | B (80%< substrate protein remaining %≤ 100%) | B (80%< substrate protein remaining %≤ 100%) | A (0% ≤ substrate protein remaining % ≤ 80%) | B (80%< substrate protein remaining %≤ 100%) |
| Cc1cccc(N2CCN(Cc3ccc4c(c3)C(=O)N(C3CCC(=O)NC3=O)C4=O)CC2)c1 (stereo not drawn) [GT-06276, 2-(2,6-dioxopiperidin-3-yl)-5-((4-(m-tolyl)piperazin-1-yl)methyl)isoindoline-1,3-dione] | B (80%< substrate protein remaining %≤ 100%) | A (0% ≤ substrate protein remaining % ≤ 80%) | B (80%< substrate protein remaining %≤ 100%) | B (80%< substrate protein remaining %≤ 100%) | A (0% ≤ substrate protein remaining % ≤ 80%) | A (0% ≤ substrate protein remaining % ≤ 80%) |
| Cc1ccc(N2CCN(Cc3ccc4c(c3)C(=O)N(C3CCC(=O)NC3=O)C4=O)CC2)cc1 (stereo not drawn) [GT-06277, 2-(2,6-dioxopiperidin-3-yl)-5-((4-(p-tolyl)piperazin-1-yl)methyl)isoindoline-1,3-dione] | B (80%< substrate protein remaining %≤ 100%) | B (80%< substrate protein remaining %≤ 100%) | B (80%< substrate protein remaining %≤ 100%) | B (80%< substrate protein remaining %≤ 100%) | A (0% ≤ substrate protein remaining % ≤ 80%) | B (80%< substrate protein remaining %≤ 100%) |
| Cc1cc(C2=CCN(Cc3ccc4c(c3)C(=O)N(C3CCC(=O)NC3=O)C4=O)CC2)cs1 (stereo not drawn) [GT-06279, 2-(2,6-dioxopiperidin-3-yl)-5-((4-(5-methylthiophen-3-yl)-3,6-dihydropyridin-1(2H)-yl)methyl)isoindoline-1,3-dione] | A (0% ≤ substrate protein remaining % ≤ 80%) | A (0% ≤ substrate protein remaining % ≤ 80%) | A (0% ≤ substrate protein remaining % ≤ 80%) | A (0% ≤ substrate protein remaining % ≤ 80%) | A (0% ≤ substrate protein remaining % ≤ 80%) | A (0% ≤ substrate protein remaining % ≤ 80%) |
| Cc1ccsc1C1CCN(Cc2ccc3c(c2)C(=O)N(C2CCC(=O)NC2=O)C3=O)CC1 (stereo not drawn) [GT-06280, 2-(2,6-dioxopiperidin-3-yl)-5-((4-(3-methylthiophen-2-yl)piperidin-1-yl)methyl)isoindoline-1,3-dione] | B (80%< substrate protein remaining %≤ 100%) | B (80%< substrate protein remaining %≤ 100%) | B (80%< substrate protein remaining %≤ 100%) | B (80%< substrate protein remaining %≤ 100%) | A (0% ≤ substrate protein remaining % ≤ 80%) | B (80%< substrate protein remaining %≤ 100%) |
| O=C1CCC(N2C(=O)c3ccc(CN4CCC(c5ccsc5)CC4)cc3C2=O)C(=O)N1 (stereo not drawn) [GT-06281, 2-(2,6-dioxopiperidin-3-yl)-5-((4-(thiophen-3-yl)piperidin-1-yl)methyl)isoindoline-1,3-dione] | B (80%< substrate protein remaining %≤ 100%) | B (80%< substrate protein remaining %≤ 100%) | B (80%< substrate protein remaining %≤ 100%) | B (80%< substrate protein remaining %≤ 100%) | A (0% ≤ substrate protein remaining % ≤ 80%) | B (80%< substrate protein remaining %≤ 100%) |
| Cc1cscc1C1CCN(Cc2ccc3c(c2)C(=O)N(C2CCC(=O)NC2=O)C3=O)CC1 (stereo not drawn) [GT-06282, 2-(2,6-dioxopiperidin-3-yl)-5-((4-(4-methylthiophen-3-yl)piperidin-1-yl)methyl)isoindoline-1,3-dione] | B (80%< substrate protein remaining %≤ 100%) | B (80%< substrate protein remaining %≤ 100%) | B (80%< substrate protein remaining %≤ 100%) | B (80%< substrate protein remaining %≤ 100%) | A (0% ≤ substrate protein remaining % ≤ 80%) | B (80%< substrate protein remaining %≤ 100%) |
| Cc1cc(C2CCN(Cc3ccc4c(c3)C(=O)N(C3CCC(=O)NC3=O)C4=O)CC2)cs1 (stereo not drawn) [GT-06283, 2-(2,6-dioxopiperidin-3-yl)-5-((4-(5-methylthiophen-3-yl)piperidin-1-yl)methyl)isoindoline-1,3-dione] | B (80%< substrate protein remaining %≤ 100%) | B (80%< substrate protein remaining %≤ 100%) | B (80%< substrate protein remaining %≤ 100%) | B (80%< substrate protein remaining %≤ 100%) | A (0% ≤ substrate protein remaining % ≤ 80%) | B (80%< substrate protein remaining %≤ 100%) |
| O=C1CCC(N2C(=O)c3ccc(CN4CCC(c5ccco5)CC4)cc3C2=O)C(=O)N1 (stereo not drawn) [GT-06284, 2-(2,6-dioxopiperidin-3-yl)-5-((4-(furan-2-yl)piperidin-1-yl)methyl)isoindoline-1,3-dione] | B (80%< substrate protein remaining %≤ 100%) | B (80%< substrate protein remaining %≤ 100%) | B (80%< substrate protein remaining %≤ 100%) | B (80%< substrate protein remaining %≤ 100%) | A (0% ≤ substrate protein remaining % ≤ 80%) | B (80%< substrate protein remaining %≤ 100%) |
| O=C1CCC(N2C(=O)c3ccc(CN4CCC(c5ccoc5)CC4)cc3C2=O)C(=O)N1 (stereo not drawn) [GT-06285, 2-(2,6-dioxopiperidin-3-yl)-5-((4-(furan-3-yl)piperidin-1-yl)methyl)isoindoline-1,3-dione] | B (80%< substrate protein remaining %≤ 100%) | B (80%< substrate protein remaining %≤ 100%) | B (80%< substrate protein remaining %≤ 100%) | B (80%< substrate protein remaining %≤ 100%) | A (0% ≤ substrate protein remaining % ≤ 80%) | B (80%< substrate protein remaining %≤ 100%) |
| O=C1CCC(N2C(=O)c3ccc(CN4CCN(c5ccccc5)CC4)cc3C2=O)C(=O)N1 (stereo not drawn) [GT-06286, 2-(2,6-dioxopiperidin-3-yl)-5-((4-phenylpiperazin-1-yl)methyl)isoindoline-1,3-dione] | B (80%< substrate protein remaining %≤ 100%) | B (80%< substrate protein remaining %≤ 100%) | B (80%< substrate protein remaining %≤ 100%) | B (80%< substrate protein remaining %≤ 100%) | A (0% ≤ substrate protein remaining % ≤ 80%) | B (80%< substrate protein remaining %≤ 100%) |
| COc1ccccc1N1CCN(Cc2ccc3c(c2)C(=O)N(C2CCC(=O)NC2=O)C3=O)CC1 (stereo not drawn) [GT-06287, 2-(2,6-dioxopiperidin-3-yl)-5-((4-(2-methoxyphenyl)piperazin-1-yl)methyl)isoindoline-1,3-dione] | B (80%< substrate protein remaining %≤ 100%) | B (80%< substrate protein remaining %≤ 100%) | B (80%< substrate protein remaining %≤ 100%) | B (80%< substrate protein remaining %≤ 100%) | A (0% ≤ substrate protein remaining % ≤ 80%) | B (80%< substrate protein remaining %≤ 100%) |
